Measured values as given in PubChem BioAssay AID330 (DTP/NCI, 2004).
Where “and” joins values, the source holds several entries; their conditions need not be identical. Equal entries are not always repeated. Inconclusive results and toxic doses are left out.

System: P388 leukemia ip, CD2F1 mice, survival T/C
Assay: NCI In Vivo Anticancer Drug Screen. Data for tumor model P388 Leukemia (intraperitoneal) in CD2F1 (CDF1) mice
Settings: endpoint: median survival time, higher = longer survival
Outline: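 Mice carrying the transplanted tumor received test compound or vehicle. Survival was recorded in each group, and the value is the treated-group measurement divided by that of the vehicle-treated control group.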

[1] = dose: 12.5 mg/kg/injection, schedule: Q01DX009 (ip), vehicle: saline
[2] = dose: 25.0 mg/kg/injection, schedule: Q01DX009 (ip), vehicle: saline
[3] = dose: 50.0 mg/kg/injection, schedule: Q01DX009 (ip), vehicle: saline
[4] = dose: 3.75 mg/kg/injection, schedule: Q01DX005 (ip), vehicle: saline with Tween-80
[5] = dose: 50.0 mg/kg/injection, schedule: Q01DX009 (ip), vehicle: saline with Tween-80
[6] = dose: 100.0 mg/kg/injection, schedule: Q01DX009 (ip), vehicle: saline with Tween-80

Compound: O=S1(=O)C2C=CC1CCCC2
- T/C [1]: 95 % of control
- T/C [2]: 90 % of control
- T/C [3]: 92 % of control and 96 % of control

Compound: CC1C(=O)OC2C1CCC1(C)CCC(O)C(C)C21 (stereo unspecified)
- T/C (dose: 100.0 mg/kg/injection, schedule: Q04DX002 (ip), vehicle: saline with Tween-80): 102 % of control
- T/C (dose: 200.0 mg/kg/injection, schedule: Q04DX002 (ip), vehicle: saline with Tween-80): 99 % of control
- T/C (dose: 400.0 mg/kg/injection, schedule: Q04DX002 (ip), vehicle: saline with Tween-80): 99 % of control

Compound: c1ccc2nc3c(ccc4ccccc43)cc2c1
- T/C (dose: 50.0 mg/kg/injection, schedule: Q04DX003 (ip), vehicle: olive oil, sesame oil, peanut oil): 101 % of control
- T/C (dose: 91.0 mg/kg/injection, schedule: Q04DX003 (ip), vehicle: saline with Tween-80): 104 % of control
- T/C (dose: 100.0 mg/kg/injection, schedule: Q04DX003 (ip), vehicle: olive oil, sesame oil, peanut oil): 103 % of control
- T/C (dose: 182.0 mg/kg/injection, schedule: Q04DX003 (ip), vehicle: saline with Tween-80): 101 % of control
- T/C (dose: 200.0 mg/kg/injection, schedule: Q04DX003 (ip), vehicle: olive oil, sesame oil, peanut oil): 103 % of control
- T/C (dose: 364.0 mg/kg/injection, schedule: Q04DX003 (ip), vehicle: saline with Tween-80): 99 % of control
- T/C (dose: 400.0 mg/kg/injection, schedule: Q04DX003 (ip), vehicle: olive oil, sesame oil, peanut oil): 105 % of control

Compound: COc1ccc2nc3cc(Cl)ccc3c(NCCCNCCCCNCCCNc3c4ccc(Cl)cc4nc4ccc(OC)nc34)c2n1
- T/C (dose: 0.93 mg/kg/injection, schedule: Q01DX005 (ip), vehicle: saline with Tween-80): 100 % of control
- T/C (dose: 1.87 mg/kg/injection, schedule: Q01DX005 (ip), vehicle: saline with Tween-80): 106 % of control
- T/C [4]: 121 % of control

Compound: CC(=O)Nc1c(Br)cc(C)cc1Br
- T/C (dose: 50.0 mg/kg/injection, schedule: Q01DX009 (ip), vehicle: Klucel (hydroxypropylcellulose) (HPC)): 94 % of control
- T/C (dose: 100.0 mg/kg/injection, schedule: Q01DX009 (ip), vehicle: Klucel (hydroxypropylcellulose) (HPC)): 102 % of control
- T/C (dose: 200.0 mg/kg/injection, schedule: Q01DX009 (ip), vehicle: Klucel (hydroxypropylcellulose) (HPC)): 100 % of control

Compound: COc1cccc(/C=C/C(=O)c2ccc(Cl)cc2)c1OC
- T/C (dose: 100.0 mg/kg/injection, schedule: Q04DX003 (ip), vehicle: saline with Tween-80): 100 % of control
- T/C (dose: 200.0 mg/kg/injection, schedule: Q04DX003 (ip), vehicle: saline with Tween-80): 100 % of control
- T/C (dose: 400.0 mg/kg/injection, schedule: Q04DX003 (ip), vehicle: saline with Tween-80): 90 % of control

Compound: CCc1cccc(NC(=O)SCc2ccccc2)c1
- T/C [5]: 94 % of control
- T/C [6]: 98 % of control

Compound: Cc1ccc(N=Nc2c(-c3ccccc3)nn(C(N)=S)c2C)cc1
- T/C (dose: 100.0 mg/kg/injection, schedule: Q01DX001 (ip), vehicle: saline with Tween-80): 92 % of control
- T/C (dose: 200.0 mg/kg/injection, schedule: Q01DX001 (ip), vehicle: saline with Tween-80): 97 % of control
- T/C (dose: 400.0 mg/kg/injection, schedule: Q01DX001 (ip), vehicle: saline with Tween-80): 103 % of control

Compound: CCn1c2ccccc2c2cc(N=Nc3ccc4c(c3)c3ccccc3n4CC)ccc21
- T/C [5]: 105 % of control
- T/C [6]: 113 % of control

Compound: CC1(O)C=CP(C)(=O)C1 (stereo unspecified)
- T/C [1]: 108 % of control
- T/C [2]: 110 % of control
- T/C [3]: 111 % of control
- T/C (dose: 100.0 mg/kg/injection, schedule: Q01DX009 (ip), vehicle: saline): 100 % of control
- T/C (dose: 200.0 mg/kg/injection, schedule: Q01DX009 (ip), vehicle: saline): 86 % of control

Compound: O=C(O)/C=C\C(=O)O.OO.[O]=[V]
- T/C [4]: 100 % of control
- T/C (dose: 15.0 mg/kg/injection, schedule: Q01DX005 (ip), vehicle: saline with Tween-80): 109 % of control

Compound: Nc1nc(N)c2c(Cl)c(CNc3ccc(C(=O)NC(CC(=O)O)C(=O)O)cc3)ccc2n1 (stereo unspecified)
- T/C (dose: 0.39 mg/kg/injection, schedule: Q01DX009 (ip), vehicle: saline with Tween-80): 210 % of control
- T/C (dose: 0.78 mg/kg/injection, schedule: Q01DX009 (ip), vehicle: saline with Tween-80): 201 % of control
- T/C (dose: 1.56 mg/kg/injection, schedule: Q01DX009 (ip), vehicle: saline with Tween-80): 90 % of control
- T/C (dose: 780.0 micrograms/kg/injection, schedule: Q01DX009 (ip), vehicle: saline with Tween-80): 194 % of control
- T/C (dose: 1560.0 micrograms/kg/injection, schedule: Q01DX009 (ip), vehicle: saline with Tween-80): 94 % of control
